Patent publication EP0726263A2, “Herbicidal (1,3,4)oxadiazoles and thiadiazoles” (American Cyanamid Company, priority 1995, dated 1996)

Key:
Type in all cases: in vivo
Ipomoea hederacea [1] = assay: Herbicidal activity, preemergence test; settings: pre; sprayed onto soil, 800 g of active material per hectare; evaluated 3 weeks after treatment
Procedure: (§1) To evaluate their herbicidal activity, compounds according to the invention are tested using a representative range of plants: TRZAW Triticum aestivum HORVW Hordeum vulgare ZEAMX Zea mays GOSHI Gossypium hirsutum HELAN Helianthus annuus GLYMA Glycine max ALOMY Alopecurus myosuroides SETVI Setaria viridis ECHCG Echinochloa crus-galli GALAP Galium aparine STEME Stellaria media VERPE Veronica persica VIOAR Viola arvensis IPOHE Ipomoea hederacea LAMPU Lamium purpureum PAPRH Papaver rhoeas MATIN Matricaria inodora AMARE Amaranthus retroflexus ABUTH Abutilon theophrasti AMBEL Ambrosia artemisifolia CHEAL Chenopodium album
(§2) The tests fall into two categories, preemergence and postemergence. The preemergence tests involve spraying a liquid formulation of the compound onto the soil in which the seeds have recently been sown. The postemergence tests involve spraying a liquid formulation of the compound onto seedling plants.
(§3) The soil used in the tests is a prepared horticultural loam.
(§4) The formulations used in the tests are prepared from solutions of the test compounds in acetone containing 0.4% by weight of an alkylphenol/ethylene oxide condensate available under the trade mark TRITON X-155. These acetone solutions are diluted with water and the resulting formulations applied at dosage levels corresponding to 800 g of active material per hectare in a volume equivalent to 900 litres per hectare.
(§5) In the preemergence tests untreated sown soil and in the postemergence tests untreated soil bearing seedling plants are used as controls.
(§6) Results of herbicide evaluation are expressed on a rating scale (0-9). The scale is based upon a visual observation of plant stand, vigor, malformation, size, chlorosis, and general plant appearance as compared to a control. Preemergence and postemergence treatments are evaluated at 3 and 2 weeks after treatment, respectively.

Setaria viridis [2] = assay: Herbicidal activity, preemergence test; settings: pre; sprayed onto soil, 800 g of active material per hectare; evaluated 3 weeks after treatment
Procedure: as §1, §2, §3, §4, §5, §6

Zea mays [3] = assay: Herbicidal activity, preemergence test; settings: pre; sprayed onto soil, 800 g of active material per hectare; evaluated 3 weeks after treatment
Procedure: as §1, §2, §3, §4, §5, §6

Chenopodium album [4] = assay: Herbicidal activity, preemergence test; settings: pre; sprayed onto soil, 800 g of active material per hectare; evaluated 3 weeks after treatment
Procedure: as §1, §2, §3, §4, §5, §6

Galium aparine [5] = assay: Herbicidal activity, preemergence test; settings: pre; sprayed onto soil, 800 g of active material per hectare; evaluated 3 weeks after treatment
Procedure: as §1, §2, §3, §4, §5, §6

Lamium purpureum [6] = assay: Herbicidal activity, preemergence test; settings: pre; sprayed onto soil, 800 g of active material per hectare; evaluated 3 weeks after treatment
Procedure: as §1, §2, §3, §4, §5, §6

Triticum aestivum [7] = assay: Herbicidal activity, preemergence test; settings: pre; sprayed onto soil, 800 g of active material per hectare; evaluated 3 weeks after treatment
Procedure: as §1, §2, §3, §4, §5, §6

Veronica persica [8] = assay: Herbicidal activity, preemergence test; settings: pre; sprayed onto soil, 800 g of active material per hectare; evaluated 3 weeks after treatment
Procedure: as §1, §2, §3, §4, §5, §6

Ambrosia artemisifolia [9] = assay: Herbicidal activity, preemergence test; settings: pre; sprayed onto soil, 800 g of active material per hectare; evaluated 3 weeks after treatment
Procedure: as §1, §2, §3, §4, §5, §6

Hordeum vulgare [10] = assay: Herbicidal activity, preemergence test; settings: pre; sprayed onto soil, 800 g of active material per hectare; evaluated 3 weeks after treatment
Procedure: as §1, §2, §3, §4, §5, §6

Papaver rhoeas [11] = assay: Herbicidal activity, preemergence test; settings: pre; sprayed onto soil, 800 g of active material per hectare; evaluated 3 weeks after treatment
Procedure: as §1, §2, §3, §4, §5, §6

Alopecurus myosuroides [12] = assay: Herbicidal activity, preemergence test; settings: pre; sprayed onto soil, 800 g of active material per hectare; evaluated 3 weeks after treatment
Procedure: as §1, §2, §3, §4, §5, §6

Amaranthus retroflexus [13] = assay: Herbicidal activity, preemergence test; settings: pre; sprayed onto soil, 800 g of active material per hectare; evaluated 3 weeks after treatment
Procedure: as §1, §2, §3, §4, §5, §6

Stellaria media [14] = assay: Herbicidal activity, preemergence test; settings: pre; sprayed onto soil, 800 g of active material per hectare; evaluated 3 weeks after treatment
Procedure: as §1, §2, §3, §4, §5, §6

Matricaria inodora [15] = assay: Herbicidal activity, preemergence test; settings: pre; sprayed onto soil, 800 g of active material per hectare; evaluated 3 weeks after treatment
Procedure: as §1, §2, §3, §4, §5, §6

Gossypium hirsutum [16] = assay: Herbicidal activity, preemergence test; settings: pre; sprayed onto soil, 800 g of active material per hectare; evaluated 3 weeks after treatment
Procedure: as §1, §2, §3, §4, §5, §6

Glycine max [17] = assay: Herbicidal activity, preemergence test; settings: pre; sprayed onto soil, 800 g of active material per hectare; evaluated 3 weeks after treatment
Procedure: as §1, §2, §3, §4, §5, §6

Abutilon theophrasti [18] = assay: Herbicidal activity, preemergence test; settings: pre; sprayed onto soil, 800 g of active material per hectare; evaluated 3 weeks after treatment
Procedure: as §1, §2, §3, §4, §5, §6

Ipomoea hederacea [19] = assay: Herbicidal activity, postemergence test; settings: post; sprayed onto seedling plants, 800 g of active material per hectare; evaluated 2 weeks after treatment
Procedure: as §1, §2, §3, §4, §5, §6

Setaria viridis [20] = assay: Herbicidal activity, postemergence test; settings: post; sprayed onto seedling plants, 800 g of active material per hectare; evaluated 2 weeks after treatment
Procedure: as §1, §2, §3, §4, §5, §6

Zea mays [21] = assay: Herbicidal activity, postemergence test; settings: post; sprayed onto seedling plants, 800 g of active material per hectare; evaluated 2 weeks after treatment
Procedure: as §1, §2, §3, §4, §5, §6

Chenopodium album [22] = assay: Herbicidal activity, postemergence test; settings: post; sprayed onto seedling plants, 800 g of active material per hectare; evaluated 2 weeks after treatment
Procedure: as §1, §2, §3, §4, §5, §6

Galium aparine [23] = assay: Herbicidal activity, postemergence test; settings: post; sprayed onto seedling plants, 800 g of active material per hectare; evaluated 2 weeks after treatment
Procedure: as §1, §2, §3, §4, §5, §6

Lamium purpureum [24] = assay: Herbicidal activity, postemergence test; settings: post; sprayed onto seedling plants, 800 g of active material per hectare; evaluated 2 weeks after treatment
Procedure: as §1, §2, §3, §4, §5, §6

Triticum aestivum [25] = assay: Herbicidal activity, postemergence test; settings: post; sprayed onto seedling plants, 800 g of active material per hectare; evaluated 2 weeks after treatment
Procedure: as §1, §2, §3, §4, §5, §6

Veronica persica [26] = assay: Herbicidal activity, postemergence test; settings: post; sprayed onto seedling plants, 800 g of active material per hectare; evaluated 2 weeks after treatment
Procedure: as §1, §2, §3, §4, §5, §6

Ambrosia artemisifolia [27] = assay: Herbicidal activity, postemergence test; settings: post; sprayed onto seedling plants, 800 g of active material per hectare; evaluated 2 weeks after treatment
Procedure: as §1, §2, §3, §4, §5, §6

Hordeum vulgare [28] = assay: Herbicidal activity, postemergence test; settings: post; sprayed onto seedling plants, 800 g of active material per hectare; evaluated 2 weeks after treatment
Procedure: as §1, §2, §3, §4, §5, §6

Papaver rhoeas [29] = assay: Herbicidal activity, postemergence test; settings: post; sprayed onto seedling plants, 800 g of active material per hectare; evaluated 2 weeks after treatment
Procedure: as §1, §2, §3, §4, §5, §6

Alopecurus myosuroides [30] = assay: Herbicidal activity, postemergence test; settings: post; sprayed onto seedling plants, 800 g of active material per hectare; evaluated 2 weeks after treatment
Procedure: as §1, §2, §3, §4, §5, §6

Amaranthus retroflexus [31] = assay: Herbicidal activity, postemergence test; settings: post; sprayed onto seedling plants, 800 g of active material per hectare; evaluated 2 weeks after treatment
Procedure: as §1, §2, §3, §4, §5, §6

Stellaria media [32] = assay: Herbicidal activity, postemergence test; settings: post; sprayed onto seedling plants, 800 g of active material per hectare; evaluated 2 weeks after treatment
Procedure: as §1, §2, §3, §4, §5, §6

Matricaria inodora [33] = assay: Herbicidal activity, postemergence test; settings: post; sprayed onto seedling plants, 800 g of active material per hectare; evaluated 2 weeks after treatment
Procedure: as §1, §2, §3, §4, §5, §6

Gossypium hirsutum [34] = assay: Herbicidal activity, postemergence test; settings: post; sprayed onto seedling plants, 800 g of active material per hectare; evaluated 2 weeks after treatment
Procedure: as §1, §2, §3, §4, §5, §6

Glycine max [35] = assay: Herbicidal activity, postemergence test; settings: post; sprayed onto seedling plants, 800 g of active material per hectare; evaluated 2 weeks after treatment
Procedure: as §1, §2, §3, §4, §5, §6

Abutilon theophrasti [36] = assay: Herbicidal activity, postemergence test; settings: post; sprayed onto seedling plants, 800 g of active material per hectare; evaluated 2 weeks after treatment
Procedure: as §1, §2, §3, §4, §5, §6

| Structure (SMILES) | IPOHE control rating (0-9) (Ipomoea hederacea [1]) | SETVI control rating (0-9) (Setaria viridis [2]) | ZEAMX control rating (0-9) (Zea mays [3]) | CHEAL control rating (0-9) (Chenopodium album [4]) | GALAP control rating (0-9) (Galium aparine [5]) | LAMPU control rating (0-9) (Lamium purpureum [6]) | TRZAW control rating (0-9) (Triticum aestivum [7]) | VERPE control rating (0-9) (Veronica persica [8]) | AMBEL control rating (0-9) (Ambrosia artemisifolia [9]) | HORVW control rating (0-9) (Hordeum vulgare [10]) | PAPRH control rating (0-9) (Papaver rhoeas [11]) | ALOMY control rating (0-9) (Alopecurus myosuroides [12]) | AMARE control rating (0-9) (Amaranthus retroflexus [13]) | STEME control rating (0-9) (Stellaria media [14]) | MATIN control rating (0-9) (Matricaria inodora [15]) | GOSHI control rating (0-9) (Gossypium hirsutum [16]) | GLXMA control rating (0-9) (Glycine max [17]) | ABUTH control rating (0-9) (Abutilon theophrasti [18]) | IPOHE control rating (0-9) (Ipomoea hederacea [19]) | SETVI control rating (0-9) (Setaria viridis [20]) | other results |
| --- | --- | --- | --- | --- | --- | --- | --- | --- | --- | --- | --- | --- | --- | --- | --- | --- | --- | --- | --- | --- | --- |
| O=C(NCc1cccs1)c1nnc(-c2ccccc2F)o1 [Example 11] | 0 (no effect) | 3 (moderate effect) | 1 (trace effect) | 3 (moderate effect) | 0 (no effect) | 0 (no effect) | 0 (no effect) | 7 (good herbicidal effect) | 0 (no effect) | 0 (no effect) | 8 (approaching complete kill) | 0 (no effect) | 7 (good herbicidal effect) | 7 (good herbicidal effect) | 2 (slight effect) | 0 (no effect) | 0 (no effect) | 0 (no effect) | 0 (no effect) | 0 (no effect) | ZEAMX control rating (0-9) (Zea mays [21]): 0 (no effect); CHEAL control rating (0-9) (Chenopodium album [22]): 8 (approaching complete kill); GALAP control rating (0-9) (Galium aparine [23]): 0 (no effect); LAMPU control rating (0-9) (Lamium purpureum [24]): 0 (no effect); TRZAW control rating (0-9) (Triticum aestivum [25]): 0 (no effect); VERPE control rating (0-9) (Veronica persica [26]): 6 (herbicidal effect); AMBEL control rating (0-9) (Ambrosia artemisifolia [27]): 4 (injury); HORVW control rating (0-9) (Hordeum vulgare [28]): 0 (no effect); PAPRH control rating (0-9) (Papaver rhoeas [29]): 7 (good herbicidal effect); ALOMY control rating (0-9) (Alopecurus myosuroides [30]): 0 (no effect); AMARE control rating (0-9) (Amaranthus retroflexus [31]): 9 (complete kill); STEME control rating (0-9) (Stellaria media [32]): 7 (good herbicidal effect); MATIN control rating (0-9) (Matricaria inodora [33]): 0 (no effect); GOSHI control rating (0-9) (Gossypium hirsutum [34]): 1 (trace effect); GLXMA control rating (0-9) (Glycine max [35]): 0 (no effect); ABUTH control rating (0-9) (Abutilon theophrasti [36]): 5 (definite injury) |
| C[C@H](NC(=O)c1nnc(-c2ccc(Cl)cc2)o1)c1ccccc1 [Example 12] | 0 (no effect) | 9 (complete kill) | 0 (no effect) | 8 (approaching complete kill) | 0 (no effect) | 8 (approaching complete kill) | 0 (no effect) | 9 (complete kill) | 0 (no effect) | 0 (no effect) | 9 (complete kill) | 1 (trace effect) | 8 (approaching complete kill) | 9 (complete kill) | 7 (good herbicidal effect) | 0 (no effect) | 0 (no effect) | 2 (slight effect) | 9 (complete kill) | 9 (complete kill) | ZEAMX control rating (0-9) (Zea mays [21]): 3 (moderate effect); CHEAL control rating (0-9) (Chenopodium album [22]): 9 (complete kill); GALAP control rating (0-9) (Galium aparine [23]): 6 (herbicidal effect); LAMPU control rating (0-9) (Lamium purpureum [24]): 9 (complete kill); TRZAW control rating (0-9) (Triticum aestivum [25]): 2 (slight effect); VERPE control rating (0-9) (Veronica persica [26]): 9 (complete kill); AMBEL control rating (0-9) (Ambrosia artemisifolia [27]): 7 (good herbicidal effect); HORVW control rating (0-9) (Hordeum vulgare [28]): 4 (injury); PAPRH control rating (0-9) (Papaver rhoeas [29]): 9 (complete kill); ALOMY control rating (0-9) (Alopecurus myosuroides [30]): 3 (moderate effect); AMARE control rating (0-9) (Amaranthus retroflexus [31]): 9 (complete kill); STEME control rating (0-9) (Stellaria media [32]): 9 (complete kill); MATIN control rating (0-9) (Matricaria inodora [33]): 5 (definite injury); GOSHI control rating (0-9) (Gossypium hirsutum [34]): 9 (complete kill); GLXMA control rating (0-9) (Glycine max [35]): 5 (definite injury); ABUTH control rating (0-9) (Abutilon theophrasti [36]): 9 (complete kill) |
